Data: publication PMC8536627, “Hydrolytic stability of anticancer drugs and one metabolite in the aquatic environment” (Environmental Science and Pollution Research International, 2021)
“Also recorded” adds a separate entry of the source. Like-named read-outs stand apart in the source and are kept apart here.

What was measured:
physchem [1] = format: physicochemical; details: for half-life: buffer, read-out: t½, extrapolated half-life (converted)
Procedure: By obtaining at least two rate constants for two different temperatures, it is possible to calculate the rate constants and, in consequence, half-lives at other temperatures, according to the Arrhenius equation: 3 k=A×e^−E/R×Torlnk=−E/R×T+lnA
Therefore, these equations were applied to extrapolate the obtained results and calculate the rate constants and half-lives of unstable anticancer drugs in more environmentally relevant temperatures (4, 10, or 15 °C), which are typical to natural waters.
Additionally, these observations confirm that CP is much more vulnerable for hydrolysis than IF, which is interesting how two isomers (like CP and IF) may differently undergo hydrolysis process. […] If the conclusions were drawn only based on the results from the preliminary experiments (incubation at 50 °C for 5 days), it would be assumed that both compounds, especially CP, are very unstable. […] Moreover, using Equation 3, it was possible to extrapolate the results to determine the rate constants and half-lives at the temperatures 4, 10, and 15 °C, which are ordinary for environmental waters (Table 2).

[2] = pH 7 and 8.1, 5 days, calculated; ref Booker et al. ([2014]); cited from earlier work
[3] = 20 °C, ref Gilard et al. ([1994]), cited from earlier work
[4] = room temperature, ref Franquet-Griell et al. [2017], cited from earlier work
physchem [5] = details: 5 days; for Degradation level in the preliminary test: dark
Procedure: The incubation was performed in the dark, in order to avoid the influence of the photolysis on degradation of the analytes. The water used for the preparation of buffers was autoclaved, all glassware was clean, flushed with methanol, and dried in high temperature. Samples were closed in glass tubes with a sealed cap. The air from above the solution was removed by a nitrogen stream just before capping. In the preliminary test, solutions of single analytes were prepared in each tested pH: 4, 7, and 9, which is required by the OECD guidelines. There was also a blank sample prepared for each pH. Samples in the preliminary test were prepared in two parallel replicates. Moreover, the complete preliminary test was repeated twice. The preliminary test was performed at 50 °C for 5 days. […] In the case of the extended tests, 7 measuring points were provided during the time of the test. Each measuring point was performed in two parallel replicates. […] The test was conducted for 30 days or to 90 % elimination of a compound. Obtained results were used to determine the hydrolysis rate constant (k) using equation: 1 lnCt/C0=kt
The HPLC-UV/Vis technique was applied to determine the level of hydrolytic degradation of the analytes. In the preliminary test, the control and blank samples were analyzed at the beginning and the end of the test. […] In the extended test, the samples collected in the time intervals were analyzed, and peak areas were compared to those obtained at the beginning of the test. This was used to determine the kinetic of this hydrolysis process by using the Equation 1. In general, each analyte was analyzed by a simple HPLC method with UV/Vis detection. Gemini C18 (Phenomenex, USA), 5 μm, 110 Å, 150 mm × 4.6 mm chromatographic column was applied for each method and three different mobile phases were used (water or 0.1 % HCOOH) mixed with the acetonitrile. The conditions applied during the LC-MS analysis with an ion trap detector for the qualitative analysis of the samples collected after the extended tests at 20 and 70 °C are presented in the Table S2.

[6] = dark conditions, 20 °C, ref Buerge et al. ([2006]); cited from earlier work
physchem [7] = format: physicochemical
Procedure: Moreover, the complete preliminary test was repeated twice. […] Each measuring point was performed in two parallel replicates.
where t, time; ct, c0, concentration of the analyte at a time (0 means the beginning of the test); k, rate constant.
Based on this, the t1/2 was determined by using the equation: 2 t1/2=ln2/k
where t1/2, half-life of the analyte; k, rate constant.
The degradation was monitored for 30 days or until 90 % of a compound was degraded. Based on the obtained results (Fig. 4) the constant rates (k) and half-lives (t1/2) have been calculated (Table 1).
After determining the hydrolysis rate constants it was possible to calculate activation energy (Ea) of this process at each pH, either from plotting ln k from T^−1 (Figure 5) when there were three k values obtained for each compound and pH (CP at pH 4, 7, and 9 as well as IF at pH 4) or from the following equation (for IF at pH 7 and 9, where only two k values were obtained) (Table 1): 4 E=Rlnk2−lnk1/1/T1¯−1/T2
where R, gas constant (8.314 J/mol × K); k1, k2, rate constants for different temperatures; T, absolute temperature (K).

[8] = HPLC water with 4 % DMSO, ref Negreira et al. ([2013a]), cited from earlier work

Structure (SMILES): O=P1(N(CCCl)CCCl)NCCCO1 (stereo not shown) [CP, cyclophosphamide]
- k, extrapolated rate constant (physchem [1]; 4 °C, pH 4): 5.1e-05 h⁻¹
- k, extrapolated rate constant (physchem [1]; 4 °C, pH 7): 5.3e-05 h⁻¹
- k, extrapolated rate constant (physchem [1]; 4 °C, pH 9): 5.3e-05 h⁻¹
- k, extrapolated rate constant (physchem [1]; 10 °C, pH 4): 7.1e-05 h⁻¹
- k, extrapolated rate constant (physchem [1]; 10 °C, pH 7): 7.4e-05 h⁻¹
- k, extrapolated rate constant (physchem [1]; 10 °C, pH 9): 7.3e-05 h⁻¹
- k, extrapolated rate constant (physchem [1]; 15 °C, pH 4): 0.000161 h⁻¹
- k, extrapolated rate constant (physchem [1]; 15 °C, pH 7): 0.000166 h⁻¹
- k, extrapolated rate constant (physchem [1]; 15 °C, pH 9): 0.000166 h⁻¹
- half-life (physchem [1]; pH 4, 4 °C, pH 4): 568 days
- half-life (physchem [1]; pH 4, 10 °C, pH 4): 406 days
- half-life (physchem [1]; pH 4, 15 °C, pH 4): 179 days
- half-life (physchem [1]; pH 7, 4 °C, pH 7): 549 days
- half-life (physchem [1]; pH 7, 10 °C, pH 7): 393 days
- half-life (physchem [1]; pH 7, 15 °C, pH 7): 174 days
- half-life (physchem [1]; pH 9, 4 °C, pH 9): 550 days
- half-life (physchem [1]; pH 9, 10 °C, pH 9): 394 days
- half-life (physchem [1]; pH 9, 15 °C, pH 9): 174 days
- Stability assessed with SPARC from molecular structure [2]: stable
- Initial concentration present after 7 days ([3]; pH 3.4–8.6, 7 days): over 95%
- Maximum degradation after 17 days ([3]; pH 3.4–8.6, 17 days): ≤ 20%
- Hydrolytic stability in milli-Q water ([4]; milli-Q water, natural pH): stable
- Stability during a 48-h test in pure water ([4]; pure water, 48 h): stable
- Hydrolytic stability in the preliminary test (physchem [5]; pH 4, 7 and 9, 50 °C): unstable; also recorded: susceptible to hydrolysis
- Degradation level in the preliminary test (physchem [5]; pH 4, 50 °C): completely eliminated
- Degradation level in the preliminary test (physchem [5]; pH 7, 50 °C): 91.6%
- Degradation level in the preliminary test (physchem [5]; pH 9, 50 °C): completely eliminated
- Half-life in lake water [6]: around 80 days
- Degradation of initial amount in 30 days (physchem [7]; 20 °C, 30 days, pH not specified (pH 4, 7, 9 tested)): around 20%
- half-life (physchem [7]; 20 °C, all pH, read-out: Half-life (converted)): ~80 days
- k, hydrolysis rate constant (physchem [7]; 20 °C, pH 4): 0.00035 h⁻¹
- k, hydrolysis rate constant (physchem [7]; 20 °C, pH 7): 0.00038 h⁻¹
- k, hydrolysis rate constant (physchem [7]; 20 °C, pH 9): 0.00037 h⁻¹
- k, hydrolysis rate constant (physchem [7]; 50 °C, pH 4): 0.025 h⁻¹
- k, hydrolysis rate constant (physchem [7]; 50 °C, pH 7): 0.024 h⁻¹
- k, hydrolysis rate constant (physchem [7]; 50 °C, pH 9): 0.024 h⁻¹
- half-life (physchem [7]; 50 °C, range over three pH values, read-out: t½, half-life (converted)): 1.15 to 1.23 days
- k, hydrolysis rate constant (physchem [7]; 70 °C, pH 4): 0.27 h⁻¹
- k, hydrolysis rate constant (physchem [7]; 70 °C, pH 7): 0.28 h⁻¹
- k, hydrolysis rate constant (physchem [7]; 70 °C, pH 9): 0.27 h⁻¹
- half-life (physchem [7]; buffer, pH 4, 20 °C, pH 4, read-out: t½, half-life (converted)): 81.8 days
- half-life (physchem [7]; buffer, pH 4, 50 °C, pH 4, read-out: t½, half-life (converted)): 1.15 days
- half-life (physchem [7]; buffer, pH 4, 70 °C, pH 4, read-out: t½, half-life (converted)): 0.108 days
- half-life (physchem [7]; buffer, pH 4, 70 °C, range over pH 4, 7, 9, read-out: t½, half-life (converted)): 0.104 to 0.108 days
- half-life (physchem [7]; buffer, pH 7, 20 °C, pH 7, read-out: t½, half-life (converted)): 77.8 days
- half-life (physchem [7]; buffer, pH 7, 50 °C, pH 7, read-out: t½, half-life (converted)): 1.23 days
- half-life (physchem [7]; buffer, pH 7, 70 °C, pH 7, read-out: t½, half-life (converted)): 0.104 days
- half-life (physchem [7]; buffer, pH 9, 20 °C, pH 9, read-out: t½, half-life (converted)): 78.9 days
- half-life (physchem [7]; buffer, pH 9, 50 °C, pH 9, read-out: t½, half-life (converted)): 1.2 days
- half-life (physchem [7]; buffer, pH 9, 70 °C, pH 9, read-out: t½, half-life (converted)): 0.104 days
- Ea, activation energy of hydrolysis (physchem [7]; pH 4): 111.2 kJ/mol
- Ea, activation energy of hydrolysis (physchem [7]; pH 7): 110.6 kJ/mol
- Ea, activation energy of hydrolysis (physchem [7]; pH 9): 110.5 kJ/mol
- Ea, activation energy of hydrolysis (physchem [7]; range over pH 4, 7, 9): 110.5 to 111.2 kJ/mol
- Stability in 24 h test ([8]; 4 °C): stable
- Long-term stability at 4 °C ([8]; 4 °C): stable for 1 month
- Stability in 24 h test ([8]; 15 °C): still stable
- Stability in 24 h test ([8]; 25 °C): remained stable
